Molecular target: T1, bacteriophage T4 DNA polymerase (Enterobacteria phage T4, UniProt P04415)
T1 construct: made in house
T1 sequence (P04415 1-898): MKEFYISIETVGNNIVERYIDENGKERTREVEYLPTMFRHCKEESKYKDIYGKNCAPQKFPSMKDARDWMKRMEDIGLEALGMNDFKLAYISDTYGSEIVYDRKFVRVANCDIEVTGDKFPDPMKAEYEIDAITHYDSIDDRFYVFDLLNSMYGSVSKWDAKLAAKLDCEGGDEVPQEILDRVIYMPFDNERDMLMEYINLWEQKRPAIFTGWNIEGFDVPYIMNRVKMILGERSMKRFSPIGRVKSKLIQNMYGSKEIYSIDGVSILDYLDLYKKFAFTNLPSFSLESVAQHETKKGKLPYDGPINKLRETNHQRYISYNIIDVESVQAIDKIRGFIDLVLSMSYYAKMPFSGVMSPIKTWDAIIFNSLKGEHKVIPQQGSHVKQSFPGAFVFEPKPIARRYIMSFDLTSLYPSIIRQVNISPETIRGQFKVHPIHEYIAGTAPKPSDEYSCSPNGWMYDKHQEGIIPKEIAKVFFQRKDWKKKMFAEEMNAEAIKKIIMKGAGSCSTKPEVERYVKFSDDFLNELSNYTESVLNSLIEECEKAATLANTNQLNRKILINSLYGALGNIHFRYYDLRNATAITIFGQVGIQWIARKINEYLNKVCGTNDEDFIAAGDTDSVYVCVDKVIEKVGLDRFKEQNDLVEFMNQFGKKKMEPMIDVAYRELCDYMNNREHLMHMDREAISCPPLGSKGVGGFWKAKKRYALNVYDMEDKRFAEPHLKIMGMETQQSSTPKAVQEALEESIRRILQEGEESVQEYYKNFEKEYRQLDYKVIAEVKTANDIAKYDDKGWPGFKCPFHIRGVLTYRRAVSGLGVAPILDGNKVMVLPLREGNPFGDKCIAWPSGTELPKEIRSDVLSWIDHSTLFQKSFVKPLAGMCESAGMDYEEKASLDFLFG
Assay: Counter-screen against bacteriophage T4 DNA polymerase
Type: biochemical
Details: for % inhibition T4 10' 2.5 / % inhibition T4 10' 5 / % inhibition T4 10' 10 / % inhibition T4 10' 20 / % inhibition T4 10' 40 / % inhibition T4 10' 80: read at 10'; for % inhibition T4 70' 2.5 / % inhibition T4 70' 5 / % inhibition T4 70' 10 / % inhibition T4 70' 20 / % inhibition T4 70' 40 / % inhibition T4 70' 80: read at 70'; for % inhibition T4 130' 2.5 / % inhibition T4 130' 5 / % inhibition T4 130' 10 / % inhibition T4 130' 20 / % inhibition T4 130' 40 / % inhibition T4 130' 80: read at 130'; for % inhibition T4 40' 2.5 / % inhibition T4 40' 5 / % inhibition T4 40' 10 / % inhibition T4 40' 20 / % inhibition T4 40' 40 / % inhibition T4 40' 80: read at 40'; for % inhibition T4 90' 2.5 / % inhibition T4 90' 5 / % inhibition T4 90' 10 / % inhibition T4 90' 20 / % inhibition T4 90' 40 / % inhibition T4 90' 80: read at 90'; for % inhibition T4 180' 2.5 / % inhibition T4 180' 5 / % inhibition T4 180' 10 / % inhibition T4 180' 20 / % inhibition T4 180' 40 / % inhibition T4 180' 80: read at 180'
How it was run: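 IC50 values come from dose-response testing of each compound against T4 DNA polymerase. This B-family polymerase was purified in-house and used as the counter-screen.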

COc1ccc(C2CC(c3ccc(Cl)cc3Cl)Nc3nc(N)nn32)cc1OC (stereo not shown) [Molecule 43, COc1cc(ccc1OC)C1CC(Nc2n1nc(n2)N)c1ccc(cc1Cl)Cl]
% inhibition T4 10' 2.5 (DRC-1, concentration 2.5): 8.55% | % inhibition T4 10' 5 (DRC-1, concentration 5): 0.398% | % inhibition T4 10' 10 (DRC-1, concentration 10): 3.64% | % inhibition T4 10' 20 (DRC-1, concentration 20): 1.67% | % inhibition T4 10' 40 (DRC-1, concentration 40): 9% | % inhibition T4 10' 80 (DRC-1, concentration 80): 12% | % inhibition T4 70' 2.5 (DRC-1, concentration 2.5): 8% | % inhibition T4 70' 5 (DRC-1, concentration 5): 0.633% | % inhibition T4 70' 10 (DRC-1, concentration 10): 1.77% | % inhibition T4 70' 20 (DRC-1, concentration 20): 0.0404% | % inhibition T4 70' 40 (DRC-1, concentration 40): 8% | % inhibition T4 70' 80 (DRC-1, concentration 80): 9% | % inhibition T4 130' 2.5 (DRC-1, concentration 2.5): 7% | % inhibition T4 130' 5 (DRC-1, concentration 5): -0.436% | % inhibition T4 130' 10 (DRC-1, concentration 10): 0.362% | % inhibition T4 130' 20 (DRC-1, concentration 20): -1.3% | % inhibition T4 130' 40 (DRC-1, concentration 40): 6% | % inhibition T4 130' 80 (DRC-1, concentration 80): 8.47% | % inhibition T4 10' 2.5 (DRC-2, concentration 2.5): 3.49% | % inhibition T4 10' 5 (DRC-2, concentration 5): -2.24% | % inhibition T4 10' 10 (DRC-2, concentration 10): -1.16% | % inhibition T4 10' 20 (DRC-2, concentration 20): -2.26% | % inhibition T4 10' 40 (DRC-2, concentration 40): 0.721% | % inhibition T4 10' 80 (DRC-2, concentration 80): 0.788% | % inhibition T4 40' 2.5 (DRC-2, concentration 2.5): 2.64% | % inhibition T4 40' 5 (DRC-2, concentration 5): -2.79% | % inhibition T4 40' 10 (DRC-2, concentration 10): -1.88% | % inhibition T4 40' 20 (DRC-2, concentration 20): -2.36% | % inhibition T4 40' 40 (DRC-2, concentration 40): 1% | % inhibition T4 40' 80 (DRC-2, concentration 80): 0.512% | % inhibition T4 90' 2.5 (DRC-2, concentration 2.5): 2% | % inhibition T4 90' 5 (DRC-2, concentration 5): -3% | % inhibition T4 90' 10 (DRC-2, concentration 10): -0.792% | % inhibition T4 90' 20 (DRC-2, concentration 20): -3% | % inhibition T4 90' 40 (DRC-2, concentration 40): -0.348% | % inhibition T4 90' 80 (DRC-2, concentration 80): -1% | % inhibition T4 180' 2.5 (DRC-2, concentration 2.5): -2.47% | % inhibition T4 180' 5 (DRC-2, concentration 5): -8% | % inhibition T4 180' 10 (DRC-2, concentration 10): -5% | % inhibition T4 180' 20 (DRC-2, concentration 20): -7% | % inhibition T4 180' 40 (DRC-2, concentration 40): -4% | % inhibition T4 180' 80 (DRC-2, concentration 80): -2.58%

Cc1cccc(-c2noc(C(=O)NNC(=O)C(Cl)(Cl)Cl)n2)c1 [KU0266208]
% inhibition T4 10' 2.5 (DRC-1, concentration 2.5): 1.001% | % inhibition T4 10' 5 (DRC-1, concentration 5): -2.3946% | % inhibition T4 10' 10 (DRC-1, concentration 10): 2.959% | % inhibition T4 10' 20 (DRC-1, concentration 20): 3.222% | % inhibition T4 10' 40 (DRC-1, concentration 40): 8.397% | % inhibition T4 10' 80 (DRC-1, concentration 80): 7.879% | % inhibition T4 70' 2.5 (DRC-1, concentration 2.5): 1.555% | % inhibition T4 70' 5 (DRC-1, concentration 5): -1.004% | % inhibition T4 70' 10 (DRC-1, concentration 10): 1.596% | % inhibition T4 70' 20 (DRC-1, concentration 20): 0.3208% | % inhibition T4 70' 40 (DRC-1, concentration 40): 4.827% | % inhibition T4 70' 80 (DRC-1, concentration 80): 4.906% | % inhibition T4 130' 2.5 (DRC-1, concentration 2.5): -1.03% | % inhibition T4 130' 5 (DRC-1, concentration 5): -3.982% | % inhibition T4 130' 10 (DRC-1, concentration 10): -1.107% | % inhibition T4 130' 20 (DRC-1, concentration 20): -3.27% | % inhibition T4 130' 40 (DRC-1, concentration 40): 2.252% | % inhibition T4 130' 80 (DRC-1, concentration 80): 3.008% | % inhibition T4 10' 2.5 (DRC-2, concentration 2.5): 7% | % inhibition T4 10' 5 (DRC-2, concentration 5): -1.26% | % inhibition T4 10' 10 (DRC-2, concentration 10): -5% | % inhibition T4 10' 20 (DRC-2, concentration 20): -8% | % inhibition T4 10' 40 (DRC-2, concentration 40): -12% | % inhibition T4 10' 80 (DRC-2, concentration 80): -4.34% | % inhibition T4 40' 2.5 (DRC-2, concentration 2.5): 7% | % inhibition T4 40' 5 (DRC-2, concentration 5): -1.26% | % inhibition T4 40' 10 (DRC-2, concentration 10): -5% | % inhibition T4 40' 20 (DRC-2, concentration 20): -8% | % inhibition T4 40' 40 (DRC-2, concentration 40): -12% | % inhibition T4 40' 80 (DRC-2, concentration 80): -4.34% | % inhibition T4 90' 2.5 (DRC-2, concentration 2.5): 7% | % inhibition T4 90' 5 (DRC-2, concentration 5): -1.21% | % inhibition T4 90' 10 (DRC-2, concentration 10): -5% | % inhibition T4 90' 20 (DRC-2, concentration 20): -8% | % inhibition T4 90' 40 (DRC-2, concentration 40): -10% | % inhibition T4 90' 80 (DRC-2, concentration 80): -1.44% | % inhibition T4 180' 2.5 (DRC-2, concentration 2.5): 1.78% | % inhibition T4 180' 5 (DRC-2, concentration 5): -5.37% | % inhibition T4 180' 10 (DRC-2, concentration 10): -9% | % inhibition T4 180' 20 (DRC-2, concentration 20): -11% | % inhibition T4 180' 40 (DRC-2, concentration 40): -9% | % inhibition T4 180' 80 (DRC-2, concentration 80): 0.715%

Cc1ccc2c(C(=O)NCCc3cccnc3)cc(NC(=O)C(C)C)cc2n1 [KU0206096]
% inhibition T4 10' (DRC-2, concentration 5): 8% | % inhibition T4 10' (DRC-2, concentration 10): 30% | % inhibition T4 10' (DRC-2, concentration 80): 35% | % inhibition T4 40' (DRC-2, concentration 2.5): 8% | % inhibition T4 40' (DRC-2, concentration 20): 35% | % inhibition T4 90' (DRC-2, concentration 10): 28% | % inhibition T4 90' (DRC-2, concentration 20): 30% | % inhibition T4 90' (DRC-2, concentration 40): 34% | % inhibition T4 180' (DRC-2, concentration 40): 28% | % inhibition T4 180' (DRC-2, concentration 80): 34%
